Like-named read-outs stand apart in the source and are kept apart here. Bounds are passed on as bounds.

In one assay the target is hNAMPT protein (Homo sapiens (Human), UniProt P43490). Nature of the assay: NAMPT enzyme assay (TR-FRET/HTRF, BodiPY ligand, anti 6His-Tb). The settings on record: for IC50: NAMPT IC50 range class, read-out: IC50; for inhibition at 1 µM: read-out: Percent Inhibition. Format: binding. An outline of the steps:
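TR-FRET binding assay in which His-tagged human NAMPT with anti-6His-Tb is displaced by compound from a BodiPY ligand, incubated 1 h at rt in the dark. Excitation was at 320 nm, with the 520/486 nm emission ratio read. IC50 was fitted from inhibition relative to DMSO controls.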

In a further assay the test system is PC3 cells. Nature of the assay: PC3 growth inhibition (Cell-titer glo, 72 hours). The assay is classed as cell-based. The settings on record: Homo sapiens, PC-3, PC3 cells, 72 hours, Cell-titer glo, read-out: Percent Inhibition (PC3 growth inhibition); for inhibition at 1 µM: compound concentration 1 μM; for inhibition at 1.667 µM: compound concentration 1.667 μM. The procedure, abridged: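 PC3 cells in RPMI1640 seeded overnight at 37 °C, 5% CO2, then exposed to compound diluted in AIM serum-free medium for 72 h. Viability by CellTiter-Glo luminescence vs DMSO controls; single-concentration % remaining viability (1 μM or 1.667 μM), or GI50/LD50 from curves.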

hNAMPT protein, sequence (P43490 whole entry): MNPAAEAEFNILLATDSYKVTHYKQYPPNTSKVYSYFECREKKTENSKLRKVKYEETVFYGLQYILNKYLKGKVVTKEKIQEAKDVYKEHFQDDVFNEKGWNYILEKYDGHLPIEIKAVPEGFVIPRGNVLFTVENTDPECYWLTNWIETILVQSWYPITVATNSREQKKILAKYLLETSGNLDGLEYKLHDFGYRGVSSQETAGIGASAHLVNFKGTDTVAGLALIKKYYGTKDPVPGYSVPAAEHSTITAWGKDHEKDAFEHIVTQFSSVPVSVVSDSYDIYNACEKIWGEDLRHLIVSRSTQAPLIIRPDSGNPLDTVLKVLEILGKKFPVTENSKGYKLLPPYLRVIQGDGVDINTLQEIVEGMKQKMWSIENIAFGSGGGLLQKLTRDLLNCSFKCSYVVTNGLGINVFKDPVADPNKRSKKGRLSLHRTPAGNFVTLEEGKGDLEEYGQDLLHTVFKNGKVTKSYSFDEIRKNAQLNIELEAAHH

Take `CN1CCN(Cc2nc3ccc(C(=O)NCCCn4ccnc4)cc3nc2-c2ccccc2)CC1` [Compound I-259, N-[3-(1H-imidazol-1-yl)propyl]-2-[(4-methylpiperazin-1-yl)methyl]-3-phenylquinoxaline-6-carboxamide]: on hNAMPT protein, the IC50 lay within 1000 to 2000 nM. For the same compound, the inhibition at 1 µM at hNAMPT protein (compound concentration 1 μM) is 44%; in the assay on PC3 cells, -7%.

For `O=C(NCCCn1ccnc1)c1ccc2nc(-c3ccccc3)c(-c3ccccc3)nc2c1` [Compound I-261, N-[3-(1H-imidazol-1-yl)propyl]-2,3-diphenylquinoxaline-6-carboxamide], at hNAMPT protein, the IC50 is 100 to 500 nM. Further, the inhibition at 1 µM at hNAMPT protein (compound concentration 1 μM) is 67%; in the assay on PC3 cells it was -1%.

For the compound `O=C(NCCCn1ccnc1)c1ccc2nc(N3CCCCCC3)c(-c3ccccc3)nc2c1` [Compound I-262, 2-(azepan-1-yl)-N-[3-(1H-imidazol-1-yl)propyl]-3-phenylquinoxaline-6-carboxamide], at hNAMPT protein, the concentration for half-maximal inhibition (IC50) was less than 100 nM. Further, the inhibition at 1 µM on hNAMPT protein (compound concentration 1 μM) is 91%; in the assay with PC3 cells, -7%.

`NC(=O)c1cccc(-c2nc3cc(C(=O)NCCCn4ccnc4)ccc3nc2-c2ccccc2)c1` [Compound I-263, 3-(3-carbamoylphenyl)-N-[3-(1H-imidazol-1-yl)propyl]-2-phenylquinoxaline-6-carboxamide]: on hNAMPT protein, the half-maximal inhibitory concentration (IC50) is 100 to 500 nM. Also, the inhibition at 1 µM on hNAMPT protein (compound concentration 1 μM) came to 81%; in the assay on PC3 cells it was 1%.

For the compound `CC(=O)Nc1ccccc1-c1nc2ccc(C(=O)NCCCn3ccnc3)cc2nc1-c1ccccc1` [Compound I-264, 2-(2-acetamidophenyl)-N-[3-(1H-imidazol-1-yl)propyl]-3-phenylquinoxaline-6-carboxamide], on hNAMPT protein, the concentration for half-maximal inhibition (IC50) was 1000 to 2000 nM. In addition, the inhibition at 1 µM on hNAMPT protein (compound concentration 1 μM) was 41%; with PC3 cells it was -8%.

As for `O=C(NCCCn1ccnc1)c1ccc2nc(-c3ccccc3)c(N3CCCCCC3)nc2c1` [Compound I-265, 3-(azepan-1-yl)-N-[3-(1H-imidazol-1-yl)propyl]-2-phenylquinoxaline-6-carboxamide], the IC50 on hNAMPT protein lay in the range of 2000 to 10000 nM. Moreover, the inhibition at 1 µM on hNAMPT protein (compound concentration 1 μM) came to 17%; in the assay on PC3 cells it was 11%.

`O=C(c1ccc2nc(-c3ccc(F)cc3)c(-c3ccc(F)cc3)nc2c1)N1CCc2nocc2C1` [Compound I-266, [2,3-bis(4-fluorophenyl)quinoxalin-6-yl](6,7-dihydroisoxazolo[4,3-c]pyridin-5(4H)-yl)methanone]: the half-maximal inhibitory concentration (IC50) on hNAMPT protein fell in the range of 2000 to 10000 nM. Moreover, the inhibition at 1 µM on hNAMPT protein (compound concentration 1 μM) was determined as 15%; with PC3 cells it was 104%.

With `O=C(NCCCn1ccnc1)c1ccc2nc(N3CCC(N4CCOCC4)C3)c(-c3ccccc3)nc2c1` (stereo not drawn) [Compound I-267, N-[3-(1H-imidazol-1-yl)propyl]-2-[3-(morpholin-4-yl)pyrrolidin-1-yl]-3-phenylquinoxaline-6-carboxamide], the concentration for half-maximal inhibition (IC50) on hNAMPT protein was 100 to 500 nM. Further, the inhibition at 1 µM on hNAMPT protein (compound concentration 1 μM) is 81%; with PC3 cells, -7%.

In the case of `O=C(NCCCn1ccnc1)c1ccc2nc(N3CCC4(CC3)Cc3ccccc3O4)c(-c3ccccc3)nc2c1` [Compound I-268, N-[3-(1H-imidazol-1-yl)propyl]-3-phenyl-2-(1′H,3H-spiro[1-benzofuran-2,4′-piperidin]-1′-yl)quinoxaline-6-carboxamide], the IC50 at hNAMPT protein is 1000 to 2000 nM. For the same compound, the figures for the inhibition at 1 µM on hNAMPT protein (compound concentration 1 μM) and in the assay with PC3 cells were 63% and -6%, respectively.

Take `O=C(NCCc1cccnc1)c1ccc2nc(-c3ccc(F)cc3)c(-c3ccc(F)cc3)nc2c1` [Compound I-269, 2,3-bis(4-fluorophenyl)-N-[2-(pyridin-3-yl)ethyl]quinoxaline-6-carboxamide]: the IC50 on hNAMPT protein was 100 to 500 nM. Moreover, the figures for the inhibition at 1 µM at hNAMPT protein (compound concentration 1 μM) and in the assay with PC3 cells were 73% and 0%, respectively.

Consider `O=C(NCCn1ccnc1)c1ccc2nc(-c3ccc(F)cc3)c(-c3ccc(F)cc3)nc2c1` [Compound I-270, 2,3-bis(4-fluorophenyl)-N-[2-(1H-imidazol-1-yl)ethyl]quinoxaline-6-carboxamide], for which the IC50 on hNAMPT protein fell in the range of 1000 to 2000 nM. For the same compound, the inhibition at 1 µM came out at 47% on hNAMPT protein (compound concentration 1 μM) and 111% in the assay on PC3 cells.

Regarding `O=C(NCCCn1ccnc1)c1ccc2nc(N3CCC(C4CCNCC4)CC3)c(-c3ccccc3)nc2c1` [Compound I-271, 2-(4,4′-Bipiperidin-1-yl)-N-[3-(1H-imidazol-1-yl)propyl]-3-phenylquinoxaline-6-carboxamide], on hNAMPT protein, the half-maximal inhibitory concentration (IC50) is less than 100 nM and the inhibition at 1 µM is 102%. Also, the inhibition at 1 µM in the assay on PC3 cells is -2%.

`O=C(NCCCn1ccnc1)c1ccc2nc(N3CCC(N4CCNC4=O)CC3)c(-c3ccccc3)nc2c1` [Compound I-272, N-[3-(1H-imidazol-1-yl)propyl]-2-[4-(2-oxoimidazolidin-1-yl)piperidin-1-yl]-3-phenylquinoxaline-6-carboxamide]: the IC50 at hNAMPT protein fell in the range of 100 to 500 nM. Moreover, the inhibition at 1 µM is 72% on hNAMPT protein (compound concentration 1 μM) and -6% with PC3 cells.

As to `O=C(NCCCc1ncc[nH]1)c1ccc2nc(Oc3ccccc3)c(-c3ccc(Cl)cc3)nc2c1` [Compound I-273, 3-(4-Chlorophenyl)-N-[3-(1H-imidazol-2-yl)propyl]-2-phenoxyquinoxaline-6-carboxamide], on hNAMPT protein, the half-inhibitory concentration (IC50) was less than 100 nM. In addition, the inhibition at 1 µM at hNAMPT protein (compound concentration 1 μM) was 88%. In the assay with PC3 cells, the inhibition at 1.667 µM is 2%.

As for `O=C(NCCCn1ccnc1)c1ccc2nc(NC3CCC3)c(-c3ccccc3)nc2c1` [Compound I-274, 2-(cyclobutylamino)-N-[3-(1H-imidazol-1-yl)propyl]-3-phenylquinoxaline-6-carboxamide], the 50% inhibitory concentration (IC50) at hNAMPT protein was 2000 to 10000 nM. Further, the inhibition at 1 µM was 25% on hNAMPT protein (compound concentration 1 μM) and -5% in the assay with PC3 cells.

Consider `O=C(NCCCn1ccnc1)c1ccc2nc(N3CCC4(CC3)OCCO4)c(-c3ccccc3)nc2c1` [Compound I-275], for which, at hNAMPT protein, the IC50 was less than 100 nM. Further, the inhibition at 1 µM on hNAMPT protein (compound concentration 1 μM) came to 99%; with PC3 cells, 0%.

As for `Cn1cnc(CCNC(=O)c2ccc3nc(-c4ccc(F)cc4)c(-c4ccc(F)cc4)nc3c2)c1` [Compound I-276, 2,3-bis(4-fluorophenyl)-N-[2-(1-methyl-1H-imidazol-4-yl)ethyl]quinoxaline-6-carboxamide], the IC50 at hNAMPT protein was in the range of 1000 to 2000 nM. Besides, the inhibition at 1 µM on hNAMPT protein (compound concentration 1 μM) is 38%; in the assay on PC3 cells it was 90%.

Turning to `O=C(NCCCc1ncc[nH]1)c1ccc2nc(N3CCC4(CC3)COC4)c(-c3ccc(F)cc3)nc2c1` [Compound I-277, 3-(4-Fluorophenyl)-N-[3-(1H-imidazol-2-yl)propyl]-2-(2-oxa-7-azaspiro[3.5]non-7-yl)quinoxaline-6-carboxamide], on hNAMPT protein, the IC50 is less than 100 nM and the inhibition at 1 µM was 99%. In the assay on PC3 cells, the inhibition at 1.667 µM stood at 2%.

Turning to `CCN(CC)c1nc2cc(C(=O)NCCCn3ccnc3)ccc2nc1-c1ccccc1` [Compound I-278, 3-(diethylamino)-N-[3-(1H-imidazol-1-yl)propyl]-2-phenylquinoxaline-6-carboxamide], the IC50 at hNAMPT protein was in the range of 2000 to 10000 nM. Moreover, the inhibition at 1 µM on hNAMPT protein (compound concentration 1 μM) is 15%; in the assay with PC3 cells it was 98%.

With `CN(CCn1ccnc1)C(=O)c1ccc2nc(-c3ccc(F)cc3)c(-c3ccc(F)cc3)nc2c1` [Compound I-279, 2,3-bis(4-fluorophenyl)-N-[2-(1H-imidazol-1-yl)ethyl]-N-methylquinoxaline-6-carboxamide], the IC50 on hNAMPT protein is 2000 to 10000 nM. Moreover, the inhibition at 1 µM is 13% at hNAMPT protein (compound concentration 1 μM) and 89% with PC3 cells.
